Legend:
[1] = biological target: NAMPT (human, recombinant, C-terminally His-tagged) (Homo sapiens, UniProt P43490); assay: Time-Resolved Fluorescence Resonance Energy Transfer (TR-FRET) Binding Assay of NAMPT; details: 6.8 nM NAMPT, 200 nM probe, equilibrated 3 hours, absence of substrates
Procedure: Determination of the utility of compounds having Formula (I) as binders to and inhibitors of NAMPT was performed using Time-Resolved Fluorescence Resonance Energy Transfer (TR-FRET) binding assays.
Time-Resolved Fluorescence Resonance Energy Transfer (TR-FRET) Binding Assay of NAMPT
Test compounds were serially diluted (typically 11 half log dilutions) in neat DMSO to 50× final concentrations prior to dilution with assay buffer (50 mM HEPES (NaOH), pH 7.5, 100 mM NaCl, 10 mM MgCl2, 1 mM DTT, 1% Glycerol) to 3× and 6% DMSO. Six μL were transferred to 384-well low-volume plates (Owens Corning #3673). To this, 12 μL of a 1.5× solution containing enzyme, probe and antibody were added. Final concentrations in the 18 μL, reactions were 1× assay buffer, 2% DMSO, 6.8 nM NAMPT (human, recombinant, C-terminally His-tagged), 200 nM probe (a potent nicotinamide-competitive inhibitor conjugated to Oregon Green 488) and 1 nM Tb-anti-His antibody (Invitrogen #PV5895). Reactions were equilibrated at room temperature for 3 hours prior to reading on an Envision multi-label plate reader (Perkin Elmer; Ex=337 nm, Em=520 and 495 nm). Time-resolved FRET ratios (Em520/Em495) were normalized to controls, plotted as a function of compound concentration and fit with the four-parameter logistic equation to determine IC50s.

NAMPT = NAMPT (Homo sapiens, UniProt P43490); assay: Time-Resolved Fluorescence Resonance Energy Transfer (TR-FRET) Binding Assay of NAMPT with PRPP; details: 2 nM NAMPT, 2 nM probe, 200 uM PRPP and 2.5 mM ATP, equilibrated 16 hours
NAMPT, sequence (P43490 whole entry): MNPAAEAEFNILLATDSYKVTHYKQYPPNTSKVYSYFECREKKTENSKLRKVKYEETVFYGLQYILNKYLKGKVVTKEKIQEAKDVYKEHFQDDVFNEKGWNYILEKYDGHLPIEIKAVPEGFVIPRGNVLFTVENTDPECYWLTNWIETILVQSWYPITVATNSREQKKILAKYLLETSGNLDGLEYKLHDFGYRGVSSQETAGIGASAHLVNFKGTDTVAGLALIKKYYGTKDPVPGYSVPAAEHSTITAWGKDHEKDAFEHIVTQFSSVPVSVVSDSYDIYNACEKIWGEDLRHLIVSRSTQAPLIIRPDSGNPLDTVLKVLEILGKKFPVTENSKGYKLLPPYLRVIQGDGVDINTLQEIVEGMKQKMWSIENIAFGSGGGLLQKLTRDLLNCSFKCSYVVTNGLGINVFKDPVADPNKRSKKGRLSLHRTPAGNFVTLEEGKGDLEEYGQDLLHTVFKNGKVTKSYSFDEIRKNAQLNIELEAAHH
Procedure: Time-Resolved Fluorescence Resonance Energy Transfer (TR-FRET) Binding Assay of NAMPT with PRPP
Compound handling and data processing were identical to the assay in the absence of substrates (above). Final concentrations were 1× assay buffer, 2% DMSO, 2 nM NAMPT, 2 nM probe, 1 nM Tb-anti-His antibody (Invitrogen #PV5895), 200 uM PRPP and 2.5 mM ATP. Reactions were equilibrated for 16 hours prior to measurement to allow for potential enzymatic modification of test compounds.

NAMPT (human, recombinant, C-terminally His-tagged), sequence (P43490 whole entry): as above

Compound	IC50 [1]	IC50 (NAMPT)
O=C(Nc1ccc(OC2CCN(C(=O)CC3CCOCC3)CC2)cc1)C1CN(c2cccnc2C(F)(F)F)C1 [Example 3, N-(4-{[1-(tetrahydro-2H-pyran-4-ylacetyl)piperidin-4-yl]oxy}phenyl)-1-[2-(trifluoromethyl)pyridin-3-yl]azetidine-3-carboxamide]	0.357 µM	0.0192 µM
CC(C)(C)CC(=O)N1CCC(Oc2ccc(NC(=O)C3CN(c4cccnc4)C3)cc2)CC1 [Example 41, N-(4-{[1-(3,3-dimethylbutanoyl)piperidin-4-yl]oxy}phenyl)-1-(pyridin-3-yl)azetidine-3-carboxamide]	0.0692 µM	0.00078 µM
O=C(Nc1ccc(OC2CCN(C(=O)CC(F)(F)F)CC2)cc1)C1CN(c2cccnc2)C1 [Example 55, 1-(pyridin-3-yl)-N-(4-{[1-(3,3,3-trifluoropropanoyl)piperidin-4-yl]oxy}phenyl)azetidine-3-carboxamide]	0.168 µM	0.00222 µM
O=C(Nc1ccc(C2CCN(C(=O)CC3CCCC3)CC2)cc1)C1CN(c2cccnc2)C1 [Example 101, N-{4-[1-(cyclopentylacetyl)piperidin-4-yl]phenyl}-1-(pyridin-3-yl)azetidine-3-carboxamide]	0.0165 µM	0.000486 µM
CC(C)(C)CN1CCC(Oc2ccc(NC(=O)C3CN(c4cccnc4)C3)cc2)CC1 [Example 79, N-(4-{[1-(2,2-dimethylpropyl)piperidin-4-yl]oxy}phenyl)-1-(pyridin-3-yl)azetidine-3-carboxamide]	2.69 µM	0.000824 µM
O=C(Nc1ccc(OC2CCN(C(=O)CC3CCCC3)CC2)cc1)C1CN(c2cccnc2)C1 [Example 69, N-(4-{[1-(cyclopentylacetyl)piperidin-4-yl]oxy}phenyl)-1-(pyridin-3-yl)azetidine-3-carboxamide]	0.0686 µM	0.000918 µM
CC(C)C(=O)N1CCC(Oc2ccc(NC(=O)[C@H]3CCN(c4cccnc4)C3)cc2)CC1 [Example 12, (3S)-N-(4-{[1-(2-methylpropanoyl)piperidin-4-yl]oxy}phenyl)-1-(pyridin-3-yl)pyrrolidine-3-carboxamide]	1.41 µM	0.00205 µM
CC(C)CN1CCC(c2ccc(NC(=O)C3CN(c4cccnc4)C3)cc2)CC1 [Example 94, N-{4-[1-(2-methylpropyl)piperidin-4-yl]phenyl}-1-(pyridin-3-yl)azetidine-3-carboxamide]	2.27 µM	0.00103 µM
O=C(Nc1ccc(C2CCN(C(=O)c3ccccc3)CC2)cc1)C1CN(c2cccnc2)C1 [Example 26, N-[4-(1-benzoylpiperidin-4-yl)phenyl]-1-(pyridin-3-yl)azetidine-3-carboxamide]	0.00505 µM	0.000761 µM
O=C(Nc1ccc(OC2CCN(CC3CC3)CC2)cc1)C1CN(c2cccnc2)C1 [Example 74, N-(4-{[1-(cyclopropylmethyl)piperidin-4-yl]oxy}phenyl)-1-(pyridin-3-yl)azetidine-3-carboxamide]	0.911 µM	0.000666 µM
CC(C)(C)OC(=O)N1CCC(Oc2ccc(C(=O)N[C@@H]3CCN(c4cccnc4)C3)cc2)CC1 [Example 28, tert-butyl 4-(4-{[(3R)-1-(pyridin-3-yl)pyrrolidin-3-yl]carbamoyl}phenoxy)piperidine-1-carboxylate]		0.00251 µM
CC(C)(C)OC(=O)N1CCC(Oc2ccc(C(=O)N[C@H]3CCN(c4cccnc4)C3)cc2)CC1 [Example 27, tert-butyl 4-(4-{[(3S)-1-(pyridin-3-yl)pyrrolidin-3-yl]carbamoyl}phenoxy)piperidine-1-carboxylate]		0.0112 µM

The remaining lines, values ahead:

IC50 [1]	IC50 (NAMPT)	Compound
0.014 µM	0.00108 µM	CCC(C)(C)C(=O)N1CCC(c2ccc(NC(=O)C3CN(c4cccnn4)C3)cc2)CC1 [Example 325, N-{4-[1-(2,2-dimethylbutanoyl)piperidin-4-yl]phenyl}-1-(pyridazin-3-yl)azetidine-3-carboxamide]
0.0104 µM	0.000798 µM	O=C(Nc1ccc(C2CCN(C(=O)c3cc(Cl)ccc3Cl)CC2)cc1)C1CN(c2cccnn2)C1 [Example 363, N-{4-[1-(2,5-dichlorobenzoyl)piperidin-4-yl]phenyl}-1-(pyridazin-3-yl)azetidine-3-carboxamide]
0.0828 µM	0.000837 µM	O=C(Nc1ccc(C2CCN(C(=O)c3cccc(C(F)(F)F)c3)CC2)cc1)C1CN(c2cccnn2)C1 [Example 354, 1-(pyridazin-3-yl)-N-(4-{1-[3-(trifluoromethyl)benzoyl]piperidin-4-yl}phenyl)azetidine-3-carboxamide]
0.0251 µM	0.034 µM	O=C(Nc1ccc(OC2CN(C(=O)c3ccc(C(F)(F)F)cc3)C2)cc1)C1CN(c2ccnnc2)C1 [Example 205, 1-(pyridazin-4-yl)-N-[4-({1-[4-(trifluoromethyl)benzoyl]azetidin-3-yl}oxy)phenyl]azetidine-3-carboxamide]
1.56 µM	0.0328 µM	O=C(Nc1ccc(C2CCN(C(=O)CC3CCCC3)CC2)cc1)[C@H]1CCN(c2ccnnc2)C1 [Example 142, (3S)—N-{4-[1-(cyclopentylacetyl)piperidin-4-yl]phenyl}-1-(pyridazin-4-yl)pyrrolidine-3-carboxamide]
0.228 µM	0.00141 µM	O=C(Nc1ccc(OC2CCN(C(=O)C3CCC(F)(F)CC3)CC2)cc1)C1CN(c2cccnn2)C1 [Example 216, N-[4-({1-[(4,4-difluorocyclohexyl)carbonyl]piperidin-4-yl}oxy)phenyl]-1-(pyridazin-3-yl)azetidine-3-carboxamide]
0.0308 µM	0.000457 µM	COc1cccc(C(=O)N2CCC(c3ccc(NC(=O)C4CN(c5cccnn5)C4)cc3)CC2)c1 [Example 346, N-{4-[1-(3-methoxybenzoyl)piperidin-4-yl]phenyl}-1-(pyridazin-3-yl)azetidine-3-carboxamide]
0.24 µM	0.00127 µM	O=C(Nc1ccc(OC2CCN(C(=O)c3ccc(C(F)(F)F)cc3)CC2)cc1)C1CN(c2cccnn2)C1 [Example 237, 1-(pyridazin-3-yl)-N-[4-({1-[4-(trifluoromethyl)benzoyl]piperidin-4-yl}oxy)phenyl]azetidine-3-carboxamide]
0.0501 µM	0.00105 µM	O=C(Nc1ccc(C2CCN(C(=O)c3cc(Cl)cc(Cl)c3)CC2)cc1)C1CN(c2cccnn2)C1 [Example 365, N-{4-[1-(3,5-dichlorobenzoyl)piperidin-4-yl]phenyl}-1-(pyridazin-3-yl)azetidine-3-carboxamide]
0.0629 µM	0.0237 µM	O=C(Nc1ccc(OC2CN(C(=O)C3CCC3)C2)cc1)C1CN(c2ccnnc2)C1 [Example 261, N-(4-{[1-(cyclobutylcarbonyl)azetidin-3-yl]oxy}phenyl)-1-(pyridazin-4-yl)azetidine-3-carboxamide]
0.0456 µM	0.0182 µM	O=C(Nc1ccc(OC2CCN(C(=O)Cc3cc(F)cc(F)c3)CC2)cc1)C1CN(c2ccnnc2)C1 [Example 291, N-[4-({1-[(3,5-difluorophenyl)acetyl]piperidin-4-yl}oxy)phenyl]-1-(pyridazin-4-yl)azetidine-3-carboxamide]
0.00691 µM	0.0269 µM	Cc1ncccc1N1CC(C(=O)Nc2ccc(C3CCN(C(=O)c4ccco4)CC3)cc2)C1 [Example 189, N-{4-[1-(furan-2-ylcarbonyl)piperidin-4-yl]phenyl}-1-(2-methylpyridin-3-yl)azetidine-3-carboxamide]
1.24 µM	0.0752 µM	CC(C)(O)C(=O)N1CCC(c2ccc(NC(=O)[C@H]3CCN(c4ccnnc4)C3)cc2)CC1 [Example 141, (3S)—N-{4-[1-(2-hydroxy-2-methylpropanoyl)piperidin-4-yl]phenyl}-1-(pyridazin-4-yl)pyrrolidine-3-carboxamide]
0.123 µM	0.000278 µM	O=C(Nc1ccc(C2CCN(C(=O)CCN3CCOCC3)CC2)cc1)C1CN(c2cccnc2)C1 [Example 124, N-(4-{1-[3-(morpholin-4-yl)propanoyl]piperidin-4-yl}phenyl)-1-(pyridin-3-yl)azetidine-3-carboxamide]
0.0116 µM	0.000294 µM	CC(=O)N[C@@H](CC(C)C)C(=O)N1CCC(c2ccc(NC(=O)C3CN(c4cccnc4)C3)cc2)CC1 [Example 120, N-{4-[1-(N-acetyl-L-leucyl)piperidin-4-yl]phenyl}-1-(pyridin-3-yl)azetidine-3-carboxamide]
0.0149 µM	0.000359 µM	Cc1ccc(C(=O)N2CCC(c3ccc(NC(=O)C4CN(c5cccnc5)C4)cc3)CC2)s1 [Example 126, N-(4-{1-[(5-methylthiophen-2-yl)carbonyl]piperidin-4-yl}phenyl)-1-(pyridin-3-yl)azetidine-3-carboxamide]

— patent US8975398B2, “NAMPT inhibitors” (AbbVie Inc., priority 2012, dated 2015)
